Counter-ions that a name gives are not always drawn. Like-named read-outs stand apart in the source and are kept apart here. Bounds are passed on as bounds.

The target of assay [1] is Jarid1B (Homo sapiens (Human), UniProt Q9UGL1). Kind of assay: Jarid1B in vitro enzyme inhibition assay (TR-FRET). It is filed as biochemical.
The test system of assay [2] is KDM5A/B. As to the kind of experiment: In vitro cell-based assay: tri-methyl H3K4 immuno-blotting in ZR-75-1 breast cancer cells. The protocol: This quantitative immuno-blotting assay measures the amount tri-methylated histone H3 at amino acid Lysine number 4, a specific substrate […] of the direct enzymatic activity of the histone demethylases KDM5A and KDM5B from extracts of the ZR-75-1 breast cancer cell line.
This assay is a fluorometric immunoassay for the quantification of tri-methyl H3K4 extracted from cells treated with test compound and is used as a measure of the cellular inhibition of KDM5A/B.
Extracts were prepared containing all of the cellular histone material using detergent based lysis and sonication methods. These lysates were subsequently normalized for total protein content using a colorimetric bicinchonic acid assay (MicroBCA Pierce/Thermo Scientific). Normalized cell extracts were then subjected to typical immuno-blotting procedures using NuPage reagents (Life Technologies). Electrophoretically separated histones were then transferred and immobilized using polyvinylidene difluoride membrane (Immobilon-FL Millipore). The amount of tri-methylated lysine 4 of histone H3 was detected using an antibody specific to the tri-methylated state (Cell Signaling Technologies) and quantified on an infrared imager using a densitometry software package (Odyssey CLx, Image Studio, Li-Cor). This background subtracted densitometry value was reported as a ration of the GAPDH amount for that sample and then calculated as a percent of the DMSO treated sample. The software package XL-fit (IDBS) was then used to calculate a relative IC50 value for the dilution series of a given test compound according to the equation: fit=(D+((Vmax*(x^n))/((x^n)+(Km^n)))).

Assay [3] addresses Jarid1A (Homo sapiens (Human), UniProt P29375). As to the kind of experiment: Jarid1A in vitro enzyme inhibition assay (TR-FRET). The assay is classed as biochemical. (In general: Time-resolved FRET reads energy transfer from a long-lived donor to a nearby acceptor.)
[4] abbreviates: 72 hours, read-out: Cellular IC50.
The mark [5] stands for this setting: read-out: Cellular IC50, 72 hours.

Sequence of Jarid1B (Q9UGL1 2-751): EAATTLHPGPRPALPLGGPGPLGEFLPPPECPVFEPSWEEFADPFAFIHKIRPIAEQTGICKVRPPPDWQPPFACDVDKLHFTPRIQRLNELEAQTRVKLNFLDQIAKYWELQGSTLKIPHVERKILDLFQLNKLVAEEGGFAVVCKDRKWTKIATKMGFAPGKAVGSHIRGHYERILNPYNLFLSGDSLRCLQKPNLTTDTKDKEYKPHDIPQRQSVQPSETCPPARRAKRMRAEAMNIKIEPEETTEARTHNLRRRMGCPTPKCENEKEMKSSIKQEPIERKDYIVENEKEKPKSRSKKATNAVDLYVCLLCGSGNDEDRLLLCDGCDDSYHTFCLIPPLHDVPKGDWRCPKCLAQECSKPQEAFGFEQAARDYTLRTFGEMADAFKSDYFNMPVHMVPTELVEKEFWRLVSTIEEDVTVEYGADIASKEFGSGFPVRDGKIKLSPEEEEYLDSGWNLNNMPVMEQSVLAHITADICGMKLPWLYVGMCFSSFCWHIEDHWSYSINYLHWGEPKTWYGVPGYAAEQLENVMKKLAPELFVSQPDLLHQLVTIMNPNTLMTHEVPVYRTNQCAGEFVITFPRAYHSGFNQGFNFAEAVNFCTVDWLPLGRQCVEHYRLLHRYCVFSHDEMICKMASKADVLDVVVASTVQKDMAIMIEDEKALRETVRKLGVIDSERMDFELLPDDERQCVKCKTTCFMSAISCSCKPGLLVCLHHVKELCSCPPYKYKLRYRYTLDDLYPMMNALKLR
Sequence of Jarid1A (P29375 1-1090): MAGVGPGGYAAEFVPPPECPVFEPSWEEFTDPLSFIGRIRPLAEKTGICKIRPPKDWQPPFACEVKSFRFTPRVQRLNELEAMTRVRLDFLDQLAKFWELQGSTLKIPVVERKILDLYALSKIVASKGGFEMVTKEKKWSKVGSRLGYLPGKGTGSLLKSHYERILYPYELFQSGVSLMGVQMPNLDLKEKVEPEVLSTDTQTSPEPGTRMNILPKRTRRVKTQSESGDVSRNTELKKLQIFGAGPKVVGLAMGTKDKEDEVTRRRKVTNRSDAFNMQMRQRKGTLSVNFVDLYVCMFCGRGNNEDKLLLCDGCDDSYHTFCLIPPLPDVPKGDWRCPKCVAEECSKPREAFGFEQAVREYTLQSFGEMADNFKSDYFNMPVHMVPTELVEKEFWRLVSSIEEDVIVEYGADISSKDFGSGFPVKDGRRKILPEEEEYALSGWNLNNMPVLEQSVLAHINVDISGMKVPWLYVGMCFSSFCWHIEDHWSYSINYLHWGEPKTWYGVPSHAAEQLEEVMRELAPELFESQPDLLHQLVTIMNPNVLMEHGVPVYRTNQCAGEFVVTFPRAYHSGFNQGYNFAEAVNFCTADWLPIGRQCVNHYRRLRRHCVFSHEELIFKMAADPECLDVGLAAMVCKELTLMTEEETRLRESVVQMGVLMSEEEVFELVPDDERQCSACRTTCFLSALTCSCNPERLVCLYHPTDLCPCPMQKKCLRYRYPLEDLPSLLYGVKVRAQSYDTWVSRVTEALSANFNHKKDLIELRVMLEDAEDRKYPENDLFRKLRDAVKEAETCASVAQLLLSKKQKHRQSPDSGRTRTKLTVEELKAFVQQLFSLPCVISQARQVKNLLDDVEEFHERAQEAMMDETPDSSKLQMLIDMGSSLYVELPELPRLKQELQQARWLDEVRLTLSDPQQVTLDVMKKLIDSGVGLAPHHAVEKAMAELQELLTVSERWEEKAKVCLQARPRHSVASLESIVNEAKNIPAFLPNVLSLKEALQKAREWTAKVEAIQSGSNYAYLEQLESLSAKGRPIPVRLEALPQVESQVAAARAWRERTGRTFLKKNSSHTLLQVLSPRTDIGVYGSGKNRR

With `COc1ccc2c(Nc3cnccc3C(=O)O)nn(C)c2c1` [Example 8, 3-[(6-methoxy-1-methyl-1H-indazol-3-yl)amino]pyridine-4-carboxylic acid], the IC50 (usually the concentration that gives 50% inhibition) was less than 100 nM in assay [1], 1000 to 10000 nM in assay [2] (setting [4]) and less than 100 nM in assay [3].
Take `Cn1nc(Nc2cnccc2C(=O)O)c2ccc(F)cc21` [Example 6, 3-[(6-fluoro-1-methyl-1H-indazol-3-yl)amino]pyridine-4-carboxylic acid]: in assay [2] (setting [4]), the IC50 is 1000 to 10000 nM.
Regarding `O=C(O)c1ccncc1Nc1nn(CC2CC2)c2ccc(Cl)cc12` [Example 34, 3-{[5-chloro-1-(cyclopropylmethyl)-1H-indazol-3-yl]amino}pyridine-4-carboxylic acid], the IC50 in assay [1] is less than 100 nM; in assay [2] (setting [4]), 1000 to 10000 nM; in assay [3], less than 100 nM.
For the molecule `CC(C)Cn1nc(Nc2cnccc2C(=O)NC#N)c2cc(F)ccc21` [Example 75, N-cyano-3-{[5-fluoro-1-(2-methylpropyl)-1H-indazol-3-yl]amino}pyridine-4-carboxamide], the IC50 in assay [1] and in assay [3] was less than 100 nM throughout.
Turning to `CCn1nc(Nc2cnccc2C(=O)O)c2cc(C)ccc21` [Example 36, 3-[(1-ethyl-5-methyl-1H-indazol-3-yl)amino]pyridine-4-carboxylic acid], the IC50 in assay [1] and in assay [3] was less than 100 nM each time.
As to `CCCn1nc(Nc2cnccc2C(=O)O)c2cc(Cl)ccc21` [Example 33, 3-[(5-chloro-1-propyl-1H-indazol-3-yl)amino]pyridine-4-carboxylic acid], the IC50 is less than 100 nM in assay [1], 100 to 1000 nM in assay [2] (setting [4]) and less than 100 nM in assay [3].
As for `CC(C)Cn1nc(Nc2cnccc2C(=O)O)c2cc(F)ccc21` [Example 25, 3-{[5-fluoro-1-(2-methylpropyl)-1H-indazol-3-yl]amino}pyridine-4-carboxylic acid], the IC50 was less than 100 nM in assay [1], 1000 to 10000 nM in assay [2] (setting [4]) and less than 100 nM in assay [3].
Consider `CNCCCCCn1nc(Nc2cnccc2C(=O)O)c2cc(F)ccc21` [Example 46, 3-({5-fluoro-1-[5-(methylamino)pentyl]-1H-indazol-3-yl}amino)pyridine-4-carboxylic acid, trifluoroacetic acid salt], for which, in assay [2] (setting [5]), the IC50 is more than 10000 nM.
Turning to `Cc1ccc2c(Nc3cnccc3C(=O)O)nn(C)c2c1` [Example 5, 3-[(1,6-dimethyl-1H-indazol-3-yl)amino]pyridine-4-carboxylic acid], the IC50 in assay [1] is less than 100 nM; in assay [2] (setting [4]) it was 1000 to 10000 nM; in assay [3] it was less than 100 nM.
Take `Cc1ccc2c(c1)c(Nc1cnccc1C(=O)O)nn2CCC(F)(F)F` [Example 39, 3-{[5-methyl-1-(3,3,3-trifluoropropyl)-1H-indazol-3-yl]amino}pyridine-4-carboxylic acid]: the IC50 in assay [1] and in assay [3] was less than 100 nM each time.
Regarding `CCCn1nc(Nc2cnccc2C(=O)O)c2cc(F)ccc21` [Example 15, 3-[(5-fluoro-1-propyl-1H-indazol-3-yl)amino]pyridine-4-carboxylic acid], the IC50 was less than 100 nM in assay [1], 1000 to 10000 nM in assay [2] (setting [4]) and less than 100 nM in assay [3].
`O=C(O)c1ccncc1Nc1nn([C@H]2CCNC2)c2ccc(F)cc12` [Example 60, 3-({5-fluoro-1-[(3S)-pyrrolidin-3-yl]-1H-indazol-3-yl}amino)pyridine-4-carboxylic acid]: the IC50 in assay [2] (setting [4]) is 1000 to 10000 nM.
In the case of `O=C(O)c1ccncc1Nc1nn(C2CCCOC2)c2ccc(F)cc12` (centres unmarked) [Example 63, 3-{[5-fluoro-1-(tetrahydro-2H-pyran-3-yl)-1H-indazol-3-yl]amino}pyridine-4-carboxylic acid], the IC50 in assay [1] and in assay [3] was less than 100 nM each time.
Consider `CCCn1nc(Nc2cnccc2C(=O)O)c2cc(C)ccc21` [Example 38, 3-[(5-methyl-1-propyl-1H-indazol-3-yl)amino]pyridine-4-carboxylic acid], for which the IC50 in assay [1] and in assay [3] was less than 100 nM each time.
Turning to `O=C(O)c1ccncc1Nc1nn(CC2CCCO2)c2ccc(F)cc12` (centres unmarked) [Example 21, 3-{[5-fluoro-1-(tetrahydrofuran-2-ylmethyl)-1H-indazol-3-yl]amino}pyridine-4-carboxylic acid], the IC50 in assay [1] is less than 100 nM; in assay [2] (setting [4]), 1000 to 10000 nM; in assay [3], less than 100 nM.
`Cc1ccc2c(c1)c(Nc1cnccc1C(=O)O)nn2CC1CC1` [Example 37, 3-{[1-(cyclopropylmethyl)-5-methyl-1H-indazol-3-yl]amino}pyridine-4-carboxylic acid]: the IC50 in assay [1] was less than 100 nM; in assay [2] (setting [4]), 100 to 1000 nM; in assay [3], less than 100 nM.
For the molecule `O=C(O)c1ccncc1Nc1nn(C2CCOCC2)c2ccc(F)cc12` [Example 62, 3-{[5-fluoro-1-(tetrahydro-2H-pyran-4-yl)-1H-indazol-3-yl]amino}pyridine-4-carboxylic acid], the IC50 in assay [1] and in assay [3] was less than 100 nM throughout.
For `O=C(O)c1ccncc1Nc1nn(C2CCCC2)c2ccc(F)cc12` [Example 29, 3-[(1-cyclopentyl-5-fluoro-1H-indazol-3-yl)amino]pyridine-4-carboxylic acid], the concentration for half-maximal inhibition (IC50) in assay [1] is less than 100 nM; in assay [2] (setting [4]) it was 100 to 1000 nM; in assay [3], less than 100 nM.
On to `O=C(O)c1ccncc1Nc1nn(CC(F)(F)F)c2ccc(F)cc12` [Example 23, 3-{[5-fluoro-1-(2,2,2-trifluoroethyl)-1H-indazol-3-yl]amino}pyridine-4-carboxylic acid], for which the IC50 in assay [1] was less than 100 nM; in assay [2] (setting [4]), 1000 to 10000 nM; in assay [3], less than 100 nM.
Turning to `CCCn1cc(Nc2cnccc2C(=O)O)c2cc(F)ccc21` [Example 57, 3-[(5-fluoro-1-propyl-1H-indol-3-yl)amino]pyridine-4-carboxylic acid], the IC50 in assay [1] and in assay [3] was less than 100 nM each time.
With `CCCCCn1nc(Nc2cnccc2C(=O)O)c2cc(F)ccc21` [Example 18, 3-[(5-fluoro-1-pentyl-1H-indazol-3-yl)amino]pyridine-4-carboxylic acid], the half-inhibitory concentration (IC50) in assay [1] was less than 100 nM; in assay [2] (setting [4]), 1000 to 10000 nM; in assay [3], less than 100 nM.
Take `Cn1nc(Nc2cnccc2C(=O)O)c2cc(Cl)ccc21` [Example 4, 3-[(5-chloro-1-methyl-1H-indazol-3-yl)amino]pyridine-4-carboxylic acid]: the IC50 was less than 100 nM in assay [1], 100 to 1000 nM in assay [2] (setting [4]) and less than 100 nM in assay [3].
On to `N#CNC(=O)c1ccncc1Nc1nn(CCN2CCC(F)(F)CC2)c2ccc(F)cc12` [Example 74, N-cyano-3-({1-[2-(4,4-difluoropiperidin-1yl)ethyl]-5-fluoro-1H-indazol-3-yl}amino)pyridine-4-carboxamide], for which the IC50 in assay [1] and in assay [3] was less than 100 nM throughout.
For `N#CNC(=O)c1ccncc1Nc1nn(CCN2CCCC2)c2ccc(Cl)cc12` [Example 79, N-cyano-3-({5-chloro-1-[2-(pyrrolidin-1-yl)ethyl]-1H-indazol-3-yl}amino)pyridine-4-carboxamide], the IC50 in assay [1] and in assay [3] was less than 100 nM each time.
For `O=C(O)c1ccncc1Nc1cn(C2CCOC2)c2ccc(F)cc12` (centres unmarked) [Example 68, 3-{[5-fluoro-1-(tetrahydrofuran-3-yl)-1H-indol-3-yl]amino}pyridine-4-carboxylic acid], the IC50 in assay [1] and in assay [3] was less than 100 nM each time.
`CN(C)CCCCn1nc(Nc2cnccc2C(=O)NC#N)c2cc(F)ccc21` [Example 76, N-cyano-3-({1-[4-(dimethylamino)butyl]-5-fluoro-1H-indazol-3-yl}amino)pyridine-4-carboxamide]: the IC50 in assay [1] and in assay [3] was less than 100 nM each time.
For `Cc1ccc2c(c1)c(Nc1cnccc1C(=O)O)nn2C` [Example 12, 3-[(1,5-dimethyl-1H-indazol-3-yl)amino]pyridine-4-carboxylic acid], the IC50 in assay [2] (setting [4]) fell in the range of 100 to 1000 nM.
In the case of `CN(C)CC#CCn1nc(Nc2cnccc2C(=O)O)c2cc(F)ccc21` [Example 49, 3-({1-[4-(dimethylamino)but-2-yn-1-yl]-5-fluoro-1H-indazol-3-yl}amino)pyridine-4-carboxylic acid, trifluoroacetic acid salt], the half-inhibitory concentration (IC50) in assay [2] (setting [5]) is more than 10000 nM.
Take `N#CNC(=O)c1ccncc1Nc1nn(CCN2CCC(F)(F)C2)c2ccc(F)cc12` [Example 72, N-cyano-3-({1-[2-(3,3-difluoropyrrolidin-1yl)ethyl]-5-fluoro-1H-indazol-3-yl}amino)pyridine-4-carboxamide]: the IC50 in assay [1] and in assay [3] was less than 100 nM in each case.
With `N#CNC(=O)c1ccncc1Nc1nn([C@H]2CCOC2)c2ccc(F)cc12` [Example 70, N-cyano-3-({5-fluoro-1-[(3S)-tetrahydrofuran-3-yl]-1H-indazol-3-yl}amino)pyridine-4-carboxamide], the IC50 in assay [1] and in assay [3] was less than 100 nM throughout.
For `O=C(O)c1ccncc1Nc1nn([C@@H]2CCNC2)c2ccc(F)cc12` [Example 61, 3-({5-fluoro-1-[(3R)-pyrrolidin-3-yl]-1H-indazol-3-yl}amino)pyridine-4-carboxylic], the IC50 in assay [2] (setting [4]) was 1000 to 10000 nM.

For the origin of these results see patent US9617242B2, “Histone demethylase inhibitors” (priority 2012, dated 2017).
